Measured values: patent US20060013804A1, “Modulation of stem cell differentiation by modulation of caspase-3 activity” (Ottawa Health Research Institute, priority 2002, published 2006)

Tests used:
[1] = system: C2C12 myoblasts; assay: C2C12 myoblast differentiation in low serum media with caspase inhibitors (MF20 staining, immunoblot of myogenic markers); format: cell-based, mouse; settings: 20 μM inhibitor; for myotube formation: C2C12, low serum media, MF20 staining, up to 4 days; for myotube formation / myoblast fusion (mononucleated / fused cells): vs DMSO; for myoblast fusion (mononucleated / fused cells) / expression of MEF2C / accumulation of myogenin: C2C12, low serum; for myoblast fusion (mononucleated / fused cells): 4 days; for expression of MEF2C / accumulation of myogenin: Western blot; for expression of MEF2C: vs control; for accumulation of myogenin: vs control myoblasts
Experimental: Myoblast culture. C2C12 cell (mouse skeletal muscle myoblast) cultures were grown and maintained in DMEM containing 10% FBS with 50 units/ml penicillin and 50 μg/ml streptomycin (Gibco). Differentiation was induced by incubating cultures in DMEM containing only a low serum concentration (2% horse serum). Caspase activity was measured using a Caspase-3 and Caspase-8 Fluorometric Assay Kit (Pharmingen). […] Control cells were treated with an equivalent amount of vehicle (DMSO). Primary myoblast cells were derived from skeletal muscles of the hind- and fore-limbs from 1-2 day old C57BL/6 wild-type, caspase-3 heterozygous and caspase-3 null mice (Frasch, S. C., et al., (1998) J. Biol. Chem. 273, 8389-8397; Kuida, K., et al., (1996) Nature 384, 368-372) (n=5 for each genotype) as described (Cregan, S. P. et al., (1999) J. Neuro. 19, 7860-7869.). To induce differentiation, primary myoblast cultures were incubated in DMEM containing 5% horse serum.
Protein isolation, immunoblot analyses and immunocytochemistry. Cells from C2C12 and primary myoblast cultures were washed with ice-cold PBS and lysed on ice for 45 minutes in modified-RIPA buffer containing 20 mM NaF, 5 mM Na3VO4 and 10 μg/ml each of aprotinin, leupeptin, pepstatin and PMSF. Total protein was measured using the BCA protein assay (Pierce). Immunoblot analyses were performed as described (Creasy, C. L., & Chernoff, J. (1995) J. Biol. Chem. 270, 21695-21700) using antibodies for MST1, MKK6, p38γ, and p38α (Upstate), p38 and MEF2C (Cell Signaling Technologies), myogenin F5D and myosin heavy chain MF20 mAb (Developmental Hybridoma Bank), and active caspase-3 (Biovision).
C2C12 myoblasts were fixed and stained with anti-MF20 as previously described (Cregan, et al., (1999) J. Neuro. 19, 7860-7869). Primary myoblast cultures were fixed in 4% paraformaldehyde, rinsed three times in PBS containing 0.01% Triton X-100 and stained as above. For both C2C12 and primary myoblast cultures, nuclei were detected by incubating cells for 10 min with 4,6-diamidino-2-phenylindole diluted 1:10000 in PBS.
Cells were fixed after 0, 2 and 4 days of differentiation and stained with the myosin heavy chain antibody MF20. […] In contrast, differentiation was more evident in cells that were incubated with caspase-8 inhibitor, z-LETD.fmk (FIG. 2B bottom panel, C).

[2] = system: primary striatal stem cells (neurospheres); assay: Primary striatal neurospheres with or without caspase-3 inhibitor, immunostaining for neural lineage markers; format: cell-based, mouse; settings: 1 μM inhibitor
Experimental: After sacrificing, the abdomen was sprayed with 70% ethanol. A 2 cm incision is made vertically up the abdomen. The horn was removed with sterile tweezers, and placed in PBS. The horn was cut open the horn to expose one embryo at a time and each embryo was placed in a separate 35 mm tissue culture dish containing 2 ml PBS. Each embryo was pinned to the dish and the cortex peeled off layer by layer to expose the striatum, which was then removed. The striatal tissue was placed in a 50 ml Falcon Tube containing cold Hank's Balanced Salt Solution (HBSS) on ice and the tissue allowed to settle at the bottom of the tube. The HBSS was replaced with 2 ml of Complete Neurocult Proliferation Media and the tissue triturated gently until only a few fragments of tissue remained. The supernatant was then collected and the fragments of tissue were triturated in 1 ml media. The supernatant was again removed and stored with the first supernatant that was collected.
At this point the number of cells can be counted using an aliquot of Trypan Blue (1/5 dilution). Cells were seeded at a density of 1 million cells per 25 ml of Complete Proliferation Media and grown in Complete Neurocult Proliferation Media for 4 days, at which time they were expanded if the plates appeared too confluent. If expansion was not necessary, the cells were allowed to grow for a few more days prior to harvesting. To expand the primary culture, half the cell suspension was placed in a new dish and 12.5 ml of Complete Proliferation Media was added to each of the initial plate and the expanded plate. After a few days, once most of the spheres had lifted off the dish, the sphere suspension was confluent. At this time, cells were either passaged in growth media, frozen, or plated onto a differentiation plate.
Plating and Differentiation of Striatal Stem Cells: In order to differentiate neurospheres, they must be plated onto a surface coated with Laminin and Poly-D-Lysine. The sphere suspension was collected from a 10 cm dish, placed in a 50 ml tube and centrifuged at 500 rpm for 5 min at 4° C. The supernatant was aspirated and discarded, then 2 ml of Complete Neurocult Proliferation Media was added and the sphere pellet gently triturated until the spheres were resuspended. The sphere suspension was then diluted in Complete Neurocult Proliferation Media to obtain the desired concentration (one 10 cm dish of neurospheres is appropriate for approximately 4 coated chamber slides). 2 ml aliquots of sphere suspension were plated per chamber and after a few hours at 37° C., the medium was changed to Complete Neurocult Differentiation media.
Paraformaldehyde (PFA) Fixing of Cells: Freshly made 4% PFA was used. Media was aspirated out of wells and each well was washed with 2 ml PBS for 3 min. […]

myotube formation [1]: impaired formation of myotubes
myotube formation ([1]; listed as Z-DEVD.fmk): drastically attenuated
expression of MEF2C [1]: virtually absent
accumulation of myogenin [1]: delayed and attenuated accumulation
accumulation of myogenin ([1]; listed as Z-DEVD.fmk): delayed and is in lower abundance
Compound: COC(=O)CC[C@H](NC(=O)[C@H](CC(=O)OC)NC(=O)OCc1ccccc1)C(=O)N[C@H](C(=O)N[C@@H](CC(=O)OC)C(=O)CF)C(C)C [z-DEVD.fmk]
myoblast fusion (mononucleated / fused cells) [1]: remained mononucleated and unfused after 4 days
myoblast fusion (mononucleated / fused cells) ([1]; listed as Z-DEVD.fmk): lack fusion capacity
expression of MEF2C ([1]; listed as Z-DEVD.fmk): low levels of MEF2C relative to control cells
glial fibrillary acid protein staining (astrocytes) ([2]; 48 h differentiation): showed no staining for astrocytes
myelin basic protein staining (oligodendricytes) ([2]; 48 h differentiation): did not stain positive for oligodendricytes
nestin staining after differentiation ([2]; 48 h differentiation): retain their undifferentiated lineage as demonstrated by the presence of nestin
cell cycling (nestin staining during proliferation) ([2]; proliferating striatal stem cells): does not have an effect on cell cycling
